In the NIST ThermoML archive (doi:10.1016/j.fluid.2008.01.020):
± gives the expanded uncertainty stated by the source.

Experiments:
[1] = Liquid; for mass density: 293.15 K, 101.33 kPa
[2] = refractive index (Na D-line) (dimensionless); conditions: 101.33 kPa, Liquid, Standard Abbe refractometry

Structure (SMILES)	mass density [1] [kg/m3]	refractive index ([2]; 293.15 K)	other results
Cc1ccccc1C [1,2-dimethylbenzene]	880.1 ± 1.3	1.5055 ± 0.0007	vapor or sublimation pressure ([1]; 415.35 K): 95.1 ± 3 kPa
Cc1ccccc1O [2-methylphenol]	1046 ± 1.6	1.5468 ± 0.0007	vapor or sublimation pressure ([1]; 463.65 K): 95.1 ± 3 kPa
Cc1cccc(O)c1 [3-methylphenol]	1034 ± 1.5	1.5414 ± 0.0007	vapor or sublimation pressure ([1]; 473.35 K): 95.1 ± 3 kPa
Cc1ccc(C)cc1 [1,4-dimethylbenzene]	861 ± 1.2	1.4858 ± 0.0007	vapor or sublimation pressure ([1]; 408.65 K): 95.1 ± 3 kPa
CN(C)C=O [dimethylformamide]	948.7 ± 1.4	1.4305 ± 0.0007	vapor or sublimation pressure ([1]; 420.95 K): 95.1 ± 3 kPa
Cc1ccc(O)cc1 [4-methylphenol]	–	–	vapor or sublimation pressure ([1]; 475.35 K): 95.1 ± 3 kPa; refractive index ([2]; 298.15 K): 1.5391 ± 0.0007
Cc1cccc(C)c1 [1,3-dimethylbenzene]	864.4 ± 1.2	1.4972 ± 0.0007	vapor or sublimation pressure ([1]; 410.25 K): 95.1 ± 3 kPa
